Reference: patent publication US6737383B1, “Herbicidal oxadiazolidines” (priority 1999, dated 2004)

How the values were obtained:
soybean = test: Test B pre/postemergence soybean; assay type: in vivo, Glycine max
Outline: (§1)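 Test chemicals in a non-phytotoxic solvent mixture with surfactant were sprayed preemergence onto planted seeds and postemergence onto plants 2 to 18 cm tall (1- to 4-leaf stage). After twelve to sixteen days in a greenhouse, injury was visually rated against untreated controls from 0 (no effect) to 10 (complete control).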

wild oat = test: Test B pre/postemergence wild oat; assay type: in vivo, Avena fatua
Outline: as §1

rape = test: Test B pre/postemergence rape; assay type: in vivo, Brassica napus
Outline: as §1

velvetleaf = test: Test B pre/postemergence velvetleaf; assay type: in vivo, Abutilon theophrasti
Outline: as §1

duck salad = test: Test B flood test duck salad; assay type: in vivo, Heteranthera limosa
Outline: (§2)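 Each value is a visual injury score relative to controls, with 10 meaning complete control and 0 no effect. Evaluation took place twelve to sixteen days after the 2-leaf-stage plants were treated and kept in the greenhouse.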

surinam grass = test: Test B pre/postemergence surinam grass; assay type: in vivo, Brachiaria decumbens
Outline: as §1

crabgrass = test: Test B pre/postemergence crabgrass; assay type: in vivo, Digitaria sanguinalis
Outline: as §1

bedstraw = test: Test B pre/postemergence bedstraw; assay type: in vivo, Galium aparine
Outline: as §1

morningglory = test: Test B pre/postemergence morningglory; assay type: in vivo, Ipomoea hederacea
Outline: as §1

corn = test: Test B pre/postemergence corn; assay type: in vivo, Zea mays
Outline: as §1

blackgrass = test: Test B pre/postemergence blackgrass; assay type: in vivo, Alopecurus myosuroides
Outline: as §1

cocklebur = test: Test B pre/postemergence cocklebur; assay type: in vivo, Xanthium strumarium
Outline: as §1

rice = test: Test B flood test rice; assay type: in vivo, Oryza sativa
Outline: as §2

bamyardgrass = test: Test B flood test barnyardgrass; assay type: in vivo, Echinochloa crus-galli
Outline: as §2

sugar beet = test: Test B pre/postemergence sugar beet; assay type: in vivo, Beta vulgaris
Outline: as §1

smallflower flatsedge = test: Test B flood test smallflower flatsedge; assay type: in vivo, Cyperus difformis
Outline: as §2

pigweed = test: Test B pre/postemergence pigweed; assay type: in vivo, Amaranthus retroflexus
Outline: as §1

giant foxtail = test: Test B pre/postemergence giant foxtail; assay type: in vivo, Setaria faberii
Outline: as §1

purple nutsedge = test: Test B pre/postemergence purple nutsedge; assay type: in vivo, Cyperus rotundus
Outline: as §1

wheat = test: Test B pre/postemergence wheat; assay type: in vivo, Triticum aestivum
Outline: as §1

[1] = Postemergence, Rate 62 g/ha, scale 0 to 10, 0 is no effect, 10 is complete control
[2] = Postemergence, Rate 125 g/ha, scale of 0 to 10 where 0 is no effect and 10 is complete control
[3] = Postemergence, Rate 250 g/ha, scale of 0 to 10, 0 is no effect, 10 is complete control
[4] = Postemergence, Rate 500 g/ha, scale of 0 to 10 where 0 is no effect and 10 is complete control
[5] = Preemergence, Rate 62 g/ha, scale 0 to 10 (0 no effect, 10 complete control)
[6] = Preemergence, Rate 125 g/ha, scale of 0 to 10 where 0 is no effect and 10 is complete control
[7] = Preemergence, Rate 500 g/ha, scale of 0 to 10 where 0 is no effect and 10 is complete control
[8] = Rate 62 g/ha, flood test species, Pre-emergence, visual evaluation after twelve to sixteen days
[9] = Rate 125 g/ha, under heading Pre-emergence, flood test species, visual evaluation after twelve to sixteen days
[10] = Rate 250 g/ha, Pre-emergence (flood test species), scale 0 to 10, 0 is no effect, 10 is complete control
[11] = Rate 500 g/ha, Pre-emergence section of Table B, 0 to 10 scale (0 no effect, 10 complete control)

Compound: C=C(Cn1c(=O)on(C(=O)N(c2ccccc2)C(C)C)c1=O)c1cccc(Cl)n1 [Compound 605]
- Plant response rating, Soybean (soybean; [1]): 2
- Plant response rating, Soybean (soybean; [2]): 2
- Soybean plant response rating (soybean; [3]): 3
- Plant response rating, Soybean (soybean; [4]): 5
- Soybean plant response rating (soybean; [5]): 0
- Soybean plant response rating (soybean; [6]): 0
- Plant response rating, Soybean (soybean; [7]): 0
- Plant response rating, Wild oats (wild oat; [1]): 2
- Plant response rating, Wild oats (wild oat; [2]): 1
- Wild oats plant response rating (wild oat; [3]): 1
- Plant response rating, Wild oats (wild oat; [4]): 2
- Wild oats plant response rating (wild oat; [5]): 0
- Wild oats plant response rating (wild oat; [6]): 0
- Plant response rating, Wild oats (wild oat; [7]): 0
- Plant response rating, Rape (rape; [1]): 0
- Plant response rating, Rape (rape; [2]): 0
- Rape plant response rating (rape; [3]): 0
- Plant response rating, Rape (rape; [4]): 0
- Rape plant response rating (rape; [5]): 0
- Rape plant response rating (rape; [6]): 0
- Plant response rating, Rape (rape; [7]): 0
- Plant response rating, Velvetleaf (velvetleaf; [1]): 0
- Plant response rating, Velvetleaf (velvetleaf; [2]): 0
- Velvetleaf plant response rating (velvetleaf; [3]): 0
- Plant response rating, Velvetleaf (velvetleaf; [4]): 0
- Velvetleaf plant response rating (velvetleaf; [5]): 0
- Velvetleaf plant response rating (velvetleaf; [6]): 0
- Plant response rating, Velvetleaf (velvetleaf; [7]): 0
- Plant response rating, Ducksalad (0 to 10 scale, 0 is no effect, 10 is complete control) (duck salad; [8]): 0
- Ducksalad plant response rating (0 to 10 scale, 0 is no effect, 10 is complete control) (duck salad; [9]): 0
- Ducksalad plant response rating (duck salad; [10]): 0
- Ducksalad plant response rating (duck salad; [11]): 0
- Plant response rating, B. signalgrass (surinam grass; [1]): 0
- Plant response rating, B. signalgrass (surinam grass; [2]): 0
- B. signalgrass plant response rating (surinam grass; [3]): 0
- Plant response rating, B. signalgrass (surinam grass; [4]): 0
- B. signalgrass plant response rating (surinam grass; [5]): 0
- B. signalgrass plant response rating (surinam grass; [6]): 0
- B. signalgrass plant response rating (0 to 10 scale, 0 is no effect, 10 is complete control) (surinam grass; Preemergence, Rate 250 g/ha): 0
- B. signalgrass plant response rating (surinam grass; [7]): 0
- Plant response rating, Crabgrass (crabgrass; [1]): 0
- Plant response rating, Crabgrass (crabgrass; [2]): 0
- Crabgrass plant response rating (crabgrass; [3]): 1
- Plant response rating, Crabgrass (crabgrass; [4]): 3
- Crabgrass plant response rating (crabgrass; [5]): 0
- Crabgrass plant response rating (crabgrass; [6]): 3
- Plant response rating, Crabgrass (crabgrass; [7]): 10
- Plant response rating, Bedstraw (bedstraw; [1]): 0
- Bedstraw plant response rating (bedstraw; [5]): 0
- Bedstraw plant response rating (bedstraw; [6]): 0
- Bedstraw plant response rating (0 to 10 scale) (bedstraw; Preemergence, Rate 250 g/ha): 0
- Bedstraw plant response rating (bedstraw; [7]): 0
- Plant response rating, Morningglory (morningglory; [2]): 6
- Morningglory plant response rating (morningglory; [3]): 9
- Plant response rating, Morningglory (morningglory; [4]): 10
- Morningglory plant response rating (morningglory; [5]): 0
- Morningglory plant response rating (morningglory; [6]): 0
- Plant response rating, Corn (corn; [1]): 0
- Plant response rating, Corn (corn; [2]): 0
- Corn plant response rating (corn; [3]): 0
- Plant response rating, Corn (corn; [4]): 0
- Corn plant response rating (corn; [5]): 0
- Corn plant response rating (corn; [6]): 0
- Corn plant response rating (0 to 10 scale) (corn; Preemergence, Rate 250 g/ha): 0
- Plant response rating, Corn (corn; [7]): 0
- Plant response rating, Blackgrass (blackgrass; [1]): 0
- Plant response rating, Blackgrass (blackgrass; [2]): 0
- Blackgrass plant response rating (blackgrass; [3]): 0
- Plant response rating, Blackgrass (blackgrass; [4]): 0
- Blackgrass plant response rating (blackgrass; [5]): 0
- Blackgrass plant response rating (blackgrass; [6]): 0
- Blackgrass plant response rating (0 to 10 scale) (blackgrass; Preemergence, Rate 250 g/ha): 0
- Blackgrass plant response rating (blackgrass; [7]): 0
- Plant response rating, Cocklebur (cocklebur; [1]): 0
- Plant response rating, Cocklebur (cocklebur; [2]): 0
- Cocklebur plant response rating (cocklebur; [3]): 0
- Plant response rating, Cocklebur (cocklebur; [4]): 0
- Cocklebur plant response rating (cocklebur; [5]): 0
- Cocklebur plant response rating (cocklebur; [6]): 0
- Cocklebur plant response rating (0 to 10 scale) (cocklebur; Preemergence, Rate 250 g/ha): 0
- Plant response rating, Cocklebur (cocklebur; [7]): 0
- Plant response rating, Rice (0 to 10 scale, 0 is no effect, 10 is complete control) (rice; [8]): 0
- Rice plant response rating (0 to 10 scale, 0 is no effect, 10 is complete control) (rice; [9]): 0
- Rice plant response rating (rice; [10]): 0
- Rice plant response rating (rice; [11]): 0
- Plant response rating, Barnyardgrass (0 to 10 scale, 0 is no effect, 10 is complete control) (bamyardgrass; [8]): 0
- Barnyardgrass plant response rating (0 to 10 scale, 0 is no effect, 10 is complete control) (bamyardgrass; [9]): 0
- Barnyardgrass plant response rating (bamyardgrass; [10]): 0
- Barnyardgrass plant response rating (bamyardgrass; [11]): 0
- Plant response rating, Sugarbeets (sugar beet; [1]): 0
- Plant response rating, Sugarbeets (sugar beet; [2]): 0
- Sugarbeets plant response rating (sugar beet; [3]): 0
- Plant response rating, Sugarbeets (sugar beet; [4]): 0
- Sugarbeets plant response rating (sugar beet; [5]): 0
- Sugarbeets plant response rating (sugar beet; [6]): 0
- Plant response rating, Sugarbeets (sugar beet; [7]): 0
- Plant response rating, S. Flatsedge (0 to 10 scale, 0 is no effect, 10 is complete control) (smallflower flatsedge; [8]): 0
- S. Flatsedge plant response rating (0 to 10 scale, 0 is no effect, 10 is complete control) (smallflower flatsedge; [9]): 0
- S. Flatsedge plant response rating (smallflower flatsedge; [10]): 0
- S. Flatsedge plant response rating (smallflower flatsedge; [11]): 0
- Plant response rating, Redroot pigweed (pigweed; [1]): 0
- Plant response rating, Redroot pigweed (pigweed; [2]): 0
- Redroot pigweed plant response rating (pigweed; [3]): 0
- Plant response rating, Redroot pigweed (pigweed; [4]): 0
- Redroot pigweed plant response rating (pigweed; [5]): 0
- Redroot pigweed plant response rating (pigweed; [6]): 0
- Plant response rating, Redroot pigweed (pigweed; [7]): 0
- Plant response rating, Giant foxtail (giant foxtail; [1]): 0
- Plant response rating, Giant foxtail (giant foxtail; [2]): 0
- Giant foxtail plant response rating (giant foxtail; [3]): 0
- Plant response rating, Giant foxtail (giant foxtail; [4]): 2
- Giant foxtail plant response rating (giant foxtail; [5]): 2
- Giant foxtail plant response rating (giant foxtail; [6]): 10
- Plant response rating, Giant foxtail (giant foxtail; [7]): 10
- Plant response rating, Nutsedge (purple nutsedge; [1]): 0
- Plant response rating, Nutsedge (purple nutsedge; [2]): 0
- Nutsedge plant response rating (purple nutsedge; [3]): 0
- Plant response rating, Nutsedge (purple nutsedge; [4]): 0
- Nutsedge plant response rating (purple nutsedge; [5]): 0
- Nutsedge plant response rating (purple nutsedge; [6]): 0
- Plant response rating, Nutsedge (purple nutsedge; [7]): 0
- Plant response rating, Wheat (wheat; [1]): 1
- Plant response rating, Wheat (wheat; [2]): 1
- Wheat plant response rating (wheat; [3]): 1
- Plant response rating, Wheat (wheat; [4]): 2
- Wheat plant response rating (wheat; [5]): 0
- Wheat plant response rating (wheat; [6]): 0
- Plant response rating, Wheat (wheat; [7]): 0
